Source: patent US9675569B2, “Method for treating a pulmonary disease state in mammals by up regulating indigenous in vivo levels of inflammatory agents in mammalian cells” (priority 2012, dated 2017)

Legend:
HSV-I infected cell = test: Viral plaque reduction in HSV-I infected cells; format: cell-based; settings: for viral plaque formation decreased: virally infected cells (Example 1)
From the text: The primary end points were the levels of IL-8 and IL-1 after treatment with an immunostimulator, pyruvate and the combination of pyruvate and α-ketoisovalerate. […] IL-8 activates neutrophils to increase their numbers at the infected site. […] IL-1 increases inflammation and decreases healing times. […] Viral plaques are a direct measure of viral numbers in infected cells.

[1] = tested on: total protein, elastase, IL-6, IL-8, TNF-α; test: Inhaled sodium pyruvate in cystic fibrosis safety study: sputum inflammatory biomarkers; format: in vivo, human; settings: for total proteins, elastase, IL-6, IL-8, and TNF-α: CF subjects
Method: All of the enrolled and dosed subjects were able to provide sputum samples for analysis before and after exposure to study drug (sodium pyruvate for inhalation at 0.5, 1.5, and 5.0 mM levels). The subjects were given 5 ml samples to inhale. Specimens were of good quality for the planned assays.
Samples were divided into two main aliquots after processing. The first aliquot was left untreated to be able to assay for the activity of free elastase. The second aliquot was treated with protease inhibitors pheylmethanesulfonylfluoride (PMSF) and ethylenediamine tetraacetic acid (EDTA) to stop any degradation of the cytokines of interest (IL-6, IL-8, IL-10, IL-17, and IL-23) and total protein.
For IL-10, IL-17 and IL-23, levels on sputum were at or below the limit of detection for the assays (7, 2 and 20 pg/mL respectively). For the other markers (total protein, elastase, IL-6, IL-8, TNF-α) levels detected where within those typically found in cystic fibrosis (CF) patients.

viral infections = test: Inhaled sodium pyruvate in a patient with sinusitis, viral infections; format: in vivo, human; settings: inhalation of 5.0 mls of a 20 mM solution, used by itself; one patient
Method: (§1) This medication is an anti-viral drug used to treat infants and young children who have a severe lung infection caused by a certain virus (respiratory syncytial virus-RSV). Nearly all children become infected with this virus before they are 3 years old. […] This medication is used to treat severe RSV infections that need treatment in a hospital. This medication is given by continuous inhalation, usually for 12 to 18 hours daily for 3 to 7 days or as directed by the doctor. A special machine (small-particle aerosol generator) is used to make a mist, which is then inhaled through the mouth or nose. Chest soreness may occur. Redness/irritation of the nasal cavities and eye or eyelid may also occur. When five (5) mls. of a 10 mM solution of pyruvate was used prior to the administration of this medication; the patient reported that the irritation and chest soreness was eliminated. […] Tissue culture studies with HSV-1, HSV-2 and various rhinoviruses, have shown that 10-40 mM concentrations of pyruvate reduced viral plaques by 40-60% by increasing the synthesis of various cytokines. The combination of various antivirals with pyruvate totally eliminated the virus infection in cells. The inhalation of 5.0 mls of a 20 mM solution of sodium pyruvate used by itself reduced viral infections in a patient with sinusitis by 50%.

[2] = One week open label home-use trial of sodium pyruvate+saline nasal sprays (Example 5); format: in vivo, human
From the text: Thirty-nine (39) subjects who were regular nasal spray users due to chronic sinusitis or allergic rhinitis and other sinus diseases were recruited for a one week open label, in home-use trial. Allergic rhinitis and other sinus diseases result in the elevation of certain inflammatory components and the concurrent down regulation of some other inflammatory components. When this happens, infections can occur. The ability to up-regulate these immune components helps balance the nasal immune system to inhibit infections and minimize injury to surrounding tissues. Six (6) different sodium pyruvate+saline combination nasal sprays, based on concentrations of saline and sodium pyruvate, were administered to the subjects, and each of the test products were used by at least six subjects. The subjects used the test nasal sprays at home (two to three sprays; two or three times a day) for seven days, in place of their regular nasal spray.
Prior to, and at the end of the study period, the subjects' nostrils were examined for mucosal fragility, lesions, erythema, and edema using a rhinoscope.
Thirty-eight subjects completed the study. […] The test formula ranged from 0.5 mM solutions to 20 mM solutions. […] In this case we delivered the 20 mM solution nasal solution with sodium pyruvate. […]

[3] = tested on: HSV-1, HSV-2 and various rhinoviruses; test: Tissue culture studies, viral plaques; format: cell-based; settings: 10-40 mM concentrations
Method: as §1

SMILES | Percentage of viral plaque reduction in virally infected cells (HSV-I infected cell; Acyclovir alone, therapeutic dose) | viral plaque formation decreased (HSV-I infected cell) | levels of TNF-α ([1]; inhalation at 0.5 mM) | levels of white blood cells, elastase, IL-8, IL-6 ([1]; inhalation at 0.5 mM) | total proteins, elastase, IL-6, IL-8, and TNF-α ([1]; inhalation of 5 ml of 0.5 mM) | total proteins, elastase, IL-6, IL-8, and TNF-α ([1]; inhalation of 5 ml of 5 mM or higher) | levels of white blood cells elastase, IL-8, IL-6, IL-10 and TNF-α ([1]; inhalation of more than 5 mM in humans) | viral infections reduced (viral infections) | effectiveness rated by the patients compared to the 20-40 mM solutions ([2]; 0.5 mM to 5 mM solutions) | rating by the patients ([2]; 40 mM solution) | viral plaques reduced [3]
Nc1nc2c(ncn2COCCO)c(=O)[nH]1 [Acyclovir, 9-[(2-hydroxyethyloxy)methyl]guanine] | 40% | 60% |  |  |  |  |  |  |  |  | 
CC(=O)C(=O)[O-].[Na+] [sodium pyruvate] |  | 50% | did not increase | reduced | reduced | increased | increased | 50% | non-effective to less effective | favorably rated | 40-60%
